Results from US20060122152A1, “Heparin for the treatment of ocular pathologies” (priority 2004, published 2006).

What was measured:
[1] = test system: corneal neovascularization; test: Silver nitrate corneal burn in rat eyes: graded inhibition of neovascularization (Example 1); format: in vivo; settings: single agents topically applied twice a day; doxycycline about 1 to about 20 mg/ml, LMWH about 10 mg/ml, triamcinolone about 4 mg/ml; compared to controls
Method: Artificial corneal burns were induced in rat eyes to determine the effects of doxycycline, steroids, and low molecular weight heparin, alone and in combinations, on corneal neovascularization.
The presence of new vessels (neovascularization) and the extent of new vessel formation was assessed by split lamp photography and histology. Inhibition of vessel proliferation was evaluated by measuring vessel progression from the outer cornea (corneal limbus) into the cornea. A numerical rating system was used to quantitate the degree of inhibition (+, ++, and +++ inhibition), with “+ inhibition” indicating inhibition one-third of the distance from the limbus of the cornea to the center; “++ inhibition” indicating inhibition two-thirds of the distance from the limbus to the center; “+++ inhibition” indicating complete inhibition of vessels between the limbus and the center; and the designation “± inhibition” indicating an intermediate degree of inhibition (e.g, less than +, ++, or +++).

[2] = test system: corneal neovascularization; test: Silver nitrate cauterization, two drug combinations, percentage area of corneal neovascularization (Example 3); format: in vivo, Long Evans rats; settings: for effect on corneal neovascularization as individual agents (in words): flurbiprofen 0.03% w/v, LMWH 10 mg/ml, data not shown
Source text: Artificial corneal burns were induced in thirty-two eyes belonging to thirty-two Long Evans rats to determine the effects of doxycycline or another tetracycline derivative and low molecular weight heparin, doxycycline or another tetracycline derivative, and flurbiprofen, or flurbiprofen and low molecular weight heparin, on corneal neovascularization. All the eyes were examined to exclude any eyes with corneal scars and/or neovascularization prior to induction.
Neovascularization was induced in all eyes using silver nitrate cauterization. The animals were first anesthetized by intraperitoneal injection of a mixture of ketamine hydrochloride (25 mg/kg) with xylazine hydrochloride (5 mg/kg). The cornea was then anesthetized by a drop of 0.5% proparacaine and allowed to dry.
Group 1 (number of animals, n=8) received a 1:1 combination of 0.03% flurbiprofen sodium ophthalmic solution (Allergan, Irvine Calif.) and 10 mg/ml low molecular weight heparin (Enoxaparin, Aventis Pharmaceuticals Inc., Bridgewater N.J.); an actual concentration of 0.015% flurbiprofen with 5 mg/ml low molecular weight heparin. […] Group 3 (n=8) received a 1:1 combination of 20 mg/ml doxycycline and 10 mg/ml low molecular weight heparin; an actual concentration of 10 mg/ml doxycycline with 5 mg/ml low molecular weight heparin. Group 4 (n=8) received balanced salt solution (control). The drops were applied topically immediately after cauterization; treatments were administered two times per day for seven days.
The presence of new vessels (neovascularization) and the extent of new vessel formation was assessed by slit lamp photography and histology. Inhibition of vessel proliferation was evaluated by measuring vessel progression from the outer cornea (corneal limbus) into the cornea. As previously described, it will be appreciated that any reduction of new vessel proliferation and/or regression of existing vessels is therapeutic, and that complete inhibition and/or regression is not required, and also that reduction includes regression of existing vessels.
The extent of corneal neovascularization was determined by slit lamp microscopy with photography (SL-7E, Topcon, Tokyo Japan) on day seven after cauterization. The animals were euthanized in a carbon dioxide chamber under deep general anesthesia. […]
Corneal neovascularization was assessed by scanning (Cano scan 9900F, Canon, Tokyo Japan) the slit lamp photographs into high resolution digital images. […] The percentage area of the cornea covered by the corneal scar in each eye was also determined. […]
Statistical analysis was performed using Statistical Analysis System (SPSS 11.5) software. The difference between the groups was determined using Mann-Whitney U Analysis test; a p value less than 0.05 was considered significant.

[3] = test system: corneal neovascularization; test: Silver nitrate cauterization, single agents, percent area of neovascularization and scar (Example 4); format: in vivo, Long Evans pigmented rats; settings: for NV area compared to the control group, statistical significance (in words): GLM with Tukey's studentized range test, p≦0.05; for Percent Area Of Neovascularization Mean +/− SD: day 7, topical two times daily for 7 days, LMWH 10 mg/ml, ascomycin 50 μg/ml, flurbiprofen 0.03%, doxycycline 20 mg/ml, triamcinolone acetonide 4 mg/ml, normal saline 74.9 +/− 9.2; for mean of percent area (neovascularization): day 7, same treatments, control group 74.9%±9.2%, FIG. 6; for neovascularization on slit lamp photograph (in words): seven days after induction of corneal burn, FIGS. 8A-8C

Compound | inhibition of neovascularization [1] | effect on corneal neovascularization as individual agent (in words) ([2]; doxycycline at 10 mg/ml) | effect on corneal neovascularization as individual agent (in words) ([2]; doxycycline at 20 mg/ml, p<0.05%) | NV area compared to the control group, statistical significance (in words) [3] | Percent Area Of Neovascularization Mean +/− SD [3] | mean of percent area (neovascularization) [3] | neovascularization on slit lamp photograph (in words) [3] | histopathology of corneal stroma (in words) ([3]; H&E 100X, FIG. 9B) | effect on corneal neovascularization as individual agents (in words) [2]
CC1c2cccc(O)c2C(=O)C2=C(O)C3(O)C(=O)C(C(N)=O)=C(O)C(N(C)C)C3C(O)C21.O (stereo not shown) [doxycycline, 4-(dimethylamino)-1,4,4a,5,5a,6,11,12a-octahydro3,5,10,12,12a-pentahydroxy-6-methyl-1,11-dioxo-2-naphthacenecarboxamide monohydrate] | + | not | did significantly inhibit | significant reduction | 35.5 +/− 29.1% | 35.5%±29.1% | neovascularization is less prominent than in control group | – | –
CC[C@@H]1/C=C(\C)C[C@H](C)C[C@H](OC)[C@H]2O[C@@](O)(C(=O)C(=O)N3CCCC[C@H]3C(=O)O[C@H](/C(C)=C/[C@@H]3CC[C@@H](O)[C@H](OC)C3)[C@H](C)[C@@H](O)CC1=O)[C@H](C)C[C@@H]2OC [ascomycin] | – | – | – | no statistically significant differences | – | 56.0%±22.4% | – | – | –
CC1(C)O[C@@H]2C[C@H]3[C@@H]4CCC5=CC(=O)C=C[C@]5(C)[C@@]4(F)[C@@H](O)C[C@]3(C)[C@]2(C(=O)CO)O1 [triamcinolone, 9α-fluoro-11 13,16a,17,21 tetra hydroxy-pregna-1,4diene-3,20-dione cyclic 16,17-acetal with acetone] | ++ | – | – | significant reduction | 13.3 +/− 7.2% | 13.3%±7.1% | relatively small neovascular area | avascular stroma | –
low molecular weight heparin | + | – | – | no statistically significant differences | 66.7 +/− 9.9% | 66.7%±9.9% | – | – | did not significantly decrease
CC(C(=O)[O-])c1ccc(-c2ccccc2)c(F)c1.O.O.[Na+] (racemic) [flurbiprofen, sodium (±)-2-(2-fluoro-4-biphenylyl)-propionate dihydrate] | – | – | – | no statistically significant differences | 50.6 +/− 18.7% | 50.5%±18.7% | neovascularization is quite prominent | – | did not significantly decrease
